Test results as given in PubChem BioAssay (NCI).
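Tested at 5 concentrations; 48 h exposure; 96-well plates; endpoints linearly interpolated, else capped at highest concentration. Definition used: TGI = concentration required for complete inhibition of growth.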

Columns and labels:
Experiment in all cases: inhibition of tumour cell growth, NCI panel, 48 h
[1] = system: SK-OV-3 ovarian
[2] = system: UACC-62 melanoma
[3] = system: KM12 colon
[4] = system: SW-620 colon
[5] = system: SK-MEL-5 melanoma
[6] = system: DU-145 prostate
[7] = system: CAKI-1 renal
[8] = system: A498 renal
[9] = system: LOX IMVI melanoma
[10] = system: BT-549 breast

| Structure (SMILES) | TGI [1] [µM] | TGI [2] [µM] | TGI [3] [µM] | TGI [4] [µM] | TGI [5] [µM] | TGI [6] [µM] | TGI [7] [µM] | TGI [8] [µM] | TGI [9] [µM] | TGI [10] [µM] |
| --- | --- | --- | --- | --- | --- | --- | --- | --- | --- | --- |
| Nc1nn2cc(-c3ccccc3)[n+](CC(=O)c3ccccc3)c2s1 | > 100 | > 100 | 47.1 | 55.9 | 73.8 | > 100 | > 100 | > 100 | 35.4 | 40.5 |
| Oc1[nH]c2ccccc2c1N=NC(=S)NCc1ccccn1 | 13.8 | 2.6 | 19.6 | 22.3 | 12 | 12.7 | 11.7 | 7.51 | 15.3 | 17.5 |
| O=C(O)CCC(NC(=O)/C(=C/c1ccccc1)NC(=O)c1ccccc1)C(=O)O (stereo not given) | > 100 | > 100 | > 100 | > 100 | > 100 | > 100 | > 100 | > 100 | > 100 | > 100 |
| Cc1nc(C)c(C(=O)NNC(=O)c2ccccc2)cc1C(=O)NNC(=O)c1ccccc1 | > 100 | > 100 | > 10 | > 100 | > 100 | > 100 | > 100 | > 100 | > 100 | > 100 |
| COc1ccc(C(OCC2OC(n3ccc(Oc4c(F)c(F)c(F)c(F)c4F)nc3=O)CC2OP(OCCC#N)N(C(C)C)C(C)C)(c2ccccc2)c2ccc(OC)cc2)cc1 (stereo not given) | > 100 | > 100 | > 100 | > 100 | > 100 | > 100 | > 100 | > 100 | > 100 | > 100 |
| CCOC(=O)C1=C(C)N(c2ccc(Cl)cc2)C2(O)C=CC(=O)C3C(=O)N(c4ccccc4)C(=O)C132 (stereo not given) | 8.27 | 3.63 | 3.52 | 3.68 | 3.47 | 4.65 | 4.72 | 3.22 | 3.69 | 5.8 |
| N#Cc1nc(-c2ccccn2)c(-c2ccccn2)nc1C#N | 7.26 | 5.1 | 11.6 | > 43.5 | > 36.5 | 12.7 | 6.81 | 8.19 | > 27.5 | 12.1 |
| O=C(c1cccs1)N(C(=O)N1CCCCC1)c1ccccc1 | > 100 | > 100 | > 100 | > 100 | > 100 | > 100 | > 100 | > 100 | > 100 | > 100 |
| NC(=O)c1nnc2c(F)cccc2c1N | > 100 | > 100 | > 100 | > 100 | > 100 | > 100 | > 100 | > 100 | > 100 | > 100 |
| O=C(N(C1=CCCC1)N(c1ccccc1)c1ccccc1)C(F)(F)F | > 100 | > 100 | 43.9 | 66.8 | 35.6 | 81.5 | 80.4 | > 100 | 31.5 | 94.8 |
| O=C(Nc1ccccc1C(=O)O)C(=Cc1ccccc1O)NC(=O)c1ccccc1 | > 100 | > 100 | > 100 | > 100 | > 100 | > 100 | > 100 | > 100 | > 100 | > 100 |
| NC(=O)c1ccc(S(=O)(=NS(=O)(=O)c2ccccc2)c2ccc(C(N)=O)cc2)cc1 | > 100 | > 100 | > 100 | > 100 | > 100 | > 100 | > 100 | > 100 | > 100 | > 100 |
| COc1cc2c3c4[n+](cc2c(OC)c1OC)CCC4CCC3 (stereo not given) | > 100 | > 100 | 99.5 | > 100 | > 53.3 | > 100 | > 100 | > 100 | > 100 | > 100 |
| O=C1CSC(c2cc3cc(Br)ccc3nc2Cl)N1c1ccc(F)c(Cl)c1 (stereo not given) | > 50 | > 50 | > 50 | > 50 | > 50 | > 50 | > 50 | > 50 | > 50 | > 50 |
| CCCCCC(=O)OCC1(CO)C/C(=C/CC(C(C)C)C(C)C)C(=O)O1 (stereo not given) | > 75 | > 75 | 37.4 | > 75 | > 75 | > 75 | 66.8 | > 75 | 20.5 | > 75 |
| CSC(=N/N=C(\C)c1ccc(S(=O)(=O)N(C)c2ccccc2)cc1)SC | > 100 | > 100 | > 100 | > 100 | > 100 | > 100 | > 100 | > 100 | > 100 | > 100 |
